Source: PMC8979340 (RSC Advances, 2022)

How the values were obtained:
human TGR5 = target: T1, human TGR5 (Homo sapiens, UniProt Q8TDU6); assay: cAMP HTRF TGR5 agonism assay in HEK293T cells expressing human TGR5; format: cell-based; settings: for TGR5 agonistic activity (in words): hTGR5, cAMP HTRF
T1 sequence (Q8TDU6 1-330): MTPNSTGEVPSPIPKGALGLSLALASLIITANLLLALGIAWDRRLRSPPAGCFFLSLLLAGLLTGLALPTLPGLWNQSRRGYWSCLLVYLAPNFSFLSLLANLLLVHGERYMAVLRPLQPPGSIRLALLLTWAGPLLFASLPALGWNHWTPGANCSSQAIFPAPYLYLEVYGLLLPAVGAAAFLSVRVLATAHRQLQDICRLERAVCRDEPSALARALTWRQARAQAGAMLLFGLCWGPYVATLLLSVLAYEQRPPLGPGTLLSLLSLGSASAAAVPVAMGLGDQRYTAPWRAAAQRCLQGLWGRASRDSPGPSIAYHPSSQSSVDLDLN

HeLa cells = assay: CCK8 cytotoxicity assay in HeLa cells; format: cell-based; settings: Homo sapiens, read-out: IC50 HeLa
A549 cells = assay: CCK8 cytotoxicity assay in A549 cells; format: cell-based; settings: Homo sapiens, A549, read-out: IC50 A549
mouse TGR5 = target: T2, mouse TGR5 (Mus musculus, UniProt Q80SS6); assay: cAMP HTRF TGR5 agonism assay in HEK293T cells expressing mouse TGR5; format: cell-based
T2 sequence (Q80SS6 1-329): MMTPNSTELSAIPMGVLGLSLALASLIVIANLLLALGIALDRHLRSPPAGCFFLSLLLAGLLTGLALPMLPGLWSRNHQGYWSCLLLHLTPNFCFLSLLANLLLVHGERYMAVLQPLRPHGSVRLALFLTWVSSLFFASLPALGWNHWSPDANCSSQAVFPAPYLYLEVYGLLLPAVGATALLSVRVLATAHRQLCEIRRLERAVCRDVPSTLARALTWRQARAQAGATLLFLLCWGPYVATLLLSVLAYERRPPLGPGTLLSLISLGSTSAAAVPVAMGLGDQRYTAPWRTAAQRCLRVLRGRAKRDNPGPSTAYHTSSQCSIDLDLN

C57 BL/6 mice = assay: In vivo GLP-1 secretion; settings: 50 mg kg−1 oral, blood 4 h later
NCI-H716 cells = assay: In vitro GLP-1 secretion assay; format: cell-based, human; settings: 4 μM, 2 h
[1] = In vitro human plasma stability assay; format: in vitro ADME

CN(C(=O)c1nccnc1Oc1cc(Cl)ccc1Cl)c1ccc(F)cc1 [18r, 3-(2,5-Dichlorophenoxy)-N-(4-fluorophenyl)-N-methylpyrazine-2-carboxamide]
EC50 (human TGR5): > 10 µM

Cc1ccc(Oc2nccnc2C(=O)N2CCN(C3CC3)c3ccccc32)cc1 [18i, (4-Cyclopropyl-3,4-dihydroquinoxalin-1(2H)-yl)(3-(p-tolyloxy)pyrazin-2-yl)methanone]
EC50 (human TGR5): 0.0832 µM

O=C(c1nccnc1Oc1ccccc1F)N1CCN(C2CC2)c2ccccc21 [18f, (4-Cyclopropyl-3,4-dihydroquinoxalin-1(2H)-yl)(3-(2-fluorophenoxy)pyrazin-2-yl)methanone]
EC50 (human TGR5): 0.0367 µM

O=C(c1nccnc1Oc1ccccc1Cl)N1CCN(C2CC2)c2ccccc21 [18g, (3-(2-Chlorophenoxy)pyrazin-2-yl)(4-cyclopropyl-3,4-dihydroquinoxalin-1(2H)-yl)methanone]
IC50 (HeLa cells): > 50 µM
IC50 (A549 cells): > 50 µM
EC50 (mouse TGR5): 0.12 µM
EC50 (human TGR5): 0.00144 µM

O=C(c1nccnc1Oc1cc(Cl)ccc1Cl)N1CCOc2ccccc21 [18u, (3-(2,5-Dichlorophenoxy)pyrazin-2-yl)(2,3-dihydro-4H-benzo[b][1,4]oxazin-4-yl)methanone]
EC50 (human TGR5): > 10 µM

O=C(c1nccnc1Oc1cc(Cl)ccc1Cl)N1CCN(C2CC2)c2ccccc21 [18k, (4-Cyclopropyl-3,4-dihydroquinoxalin-1(2H)-yl)(3-(2,5-dichlorophenoxy)pyrazin-2-yl)methanone]
IC50 (HeLa cells): > 50 µM
GLP-1 secretion compared to control (C57 BL/6 mice): increase GLP-1 secretion
IC50 (A549 cells): > 50 µM
EC50 (mouse TGR5): 0.267 µM
GLP-1 secretion compared to control (NCI-H716 cells): increase the secretion of GLP-1
half-life [1]: > 4.82 h
remaining at 0 h [1]: 100%
remaining at 0.5 h [1]: 104%
remaining at 1 h [1]: 102%
remaining at 2 h [1]: 85.4%
EC50 (human TGR5): 0.00058 µM

O=C(c1nccnc1Oc1ccc(-c2ccccc2)cc1)N1CCN(C2CC2)c2ccccc21 [18l, (3-([1,1′-Biphenyl]-4-yloxy)pyrazin-2-yl)(4-cyclopropyl-3,4-dihydroquinoxalin-1(2H)-yl)methanone]
EC50 (human TGR5): 0.895 µM

O=C(c1cc2sccc2n1Cc1ccc(Cl)cc1)N1CCN(C2CC2)c2ccccc21 [18c, (4-(4-Chlorobenzyl)-4H-thieno[3,2-b]pyrrol-5-yl)(4-cyclopropyl-3,4-dihydroquinoxalin-1(2H)-yl)methanone]
EC50 (human TGR5): > 30 µM
TGR5 agonistic activity (in words) (human TGR5): no TGR5 agonistic activities

O=C(c1cc2ccccc2n1Cc1ccc(Cl)cc1)N1CCN(C2CC2)c2ccccc21 [18b, (1-(4-Chlorobenzyl)-1H-indol-2-yl)(4-cyclopropyl-3,4-dihydroquinoxalin-1(2H)-yl)methanone]
EC50 (human TGR5): > 30 µM
TGR5 agonistic activity (in words) (human TGR5): no TGR5 agonistic activities

COc1ccc(Oc2nccnc2C(=O)N2CCN(C3CC3)c3ccccc32)cc1 [18h, (4-Cyclopropyl-3,4-dihydroquinoxalin-1(2H)-yl)(3-(4-methoxyphenoxy)pyrazin-2-yl)methanone]
EC50 (human TGR5): 0.196 µM

O=C(c1nccnc1Oc1ccc(Cl)cc1Cl)N1CCN(C2CC2)c2ccccc21 [18j, (4-Cyclopropyl-3,4-dihydroquinoxalin-1(2H)-yl)(3-(2,4-dichlorophenoxy)pyrazin-2-yl)methanone]
IC50 (HeLa cells): > 50 µM
IC50 (A549 cells): > 50 µM
EC50 (mouse TGR5): 0.538 µM
EC50 (human TGR5): 0.00989 µM

O=C(c1nccnc1Oc1ccc(Cl)cc1)N1CCN(C2CC2)c2ccccc21 [18d, (3-(4-Chlorophenoxy)pyrazin-2-yl)(4-cyclopropyl-3,4-dihydroquinoxalin-1(2H)-yl)methanone]
EC50 (human TGR5): 1.5 µM

O=C(c1nccnc1Oc1cc(Cl)ccc1Cl)N1CCN(c2ccccc2F)CC1 [18o, (3-(2,5-Dichlorophenoxy)pyrazin-2-yl)(4-(2-fluorophenyl)piperazin-1-yl)methanone]
EC50 (human TGR5): > 10 µM

O=C(c1nccnc1Oc1ccc(F)cc1)N1CCN(C2CC2)c2ccccc21 [18e, (4-Cyclopropyl-3,4-dihydroquinoxalin-1(2H)-yl)(3-(4-fluorophenoxy)pyrazin-2-yl)methanone]
EC50 (human TGR5): 0.442 µM

O=C(C1Cc2ccccc2CN1Cc1ccc(Cl)cc1)N1CCN(C2CC2)c2ccccc21 (stereo not shown) [18a, (2-(4-Chlorobenzyl)-1,2,3,4-tetrahydroisoquinolin-3-yl)(4-cyclopropyl-3,4-dihydroquinoxalin-1(2H)-yl)methanone]
EC50 (human TGR5): > 30 µM
TGR5 agonistic activity (in words) (human TGR5): no TGR5 agonistic activities
